In patent US8999983B2, “Modulators of Hec1 activity and methods therefor” (Taivex Therapeutics Corporation, priority 2011, dated 2015):
pIC50: −log10 of the molar value.

Key:
cancer cells = test: DNA content analysis (propidium iodide, FACS); format: cell-based
Procedure: DNA Content Analysis: Cells were plated in a 10-cm culture plate and cultured overnight. Cells were incubated with the compound for the indicated time and collected at the indicated time points. Cells were fixed with 70% ethanol overnight, stained with propidium iodide solution (1.25 mg/ml propidium iodide (Sigma) and 20 μl/ml […] in PBS) and subjected to fluorescence activated cell sorting (FACS). The results were analyzed by Cell Quest software (BD Biosciences, San Jose Calif. 95131 USA).

hERG potassium channels = biological target: T1, hERG potassium channels (Homo sapiens, UniProt Q12809); test: [3H]Astemizole competitive binding assay, hERG; details: [3H]-astemizole displacement, hERG membrane protein
T1 construct: purchased PerkinElmer
T1 sequence (Q12809 whole entry): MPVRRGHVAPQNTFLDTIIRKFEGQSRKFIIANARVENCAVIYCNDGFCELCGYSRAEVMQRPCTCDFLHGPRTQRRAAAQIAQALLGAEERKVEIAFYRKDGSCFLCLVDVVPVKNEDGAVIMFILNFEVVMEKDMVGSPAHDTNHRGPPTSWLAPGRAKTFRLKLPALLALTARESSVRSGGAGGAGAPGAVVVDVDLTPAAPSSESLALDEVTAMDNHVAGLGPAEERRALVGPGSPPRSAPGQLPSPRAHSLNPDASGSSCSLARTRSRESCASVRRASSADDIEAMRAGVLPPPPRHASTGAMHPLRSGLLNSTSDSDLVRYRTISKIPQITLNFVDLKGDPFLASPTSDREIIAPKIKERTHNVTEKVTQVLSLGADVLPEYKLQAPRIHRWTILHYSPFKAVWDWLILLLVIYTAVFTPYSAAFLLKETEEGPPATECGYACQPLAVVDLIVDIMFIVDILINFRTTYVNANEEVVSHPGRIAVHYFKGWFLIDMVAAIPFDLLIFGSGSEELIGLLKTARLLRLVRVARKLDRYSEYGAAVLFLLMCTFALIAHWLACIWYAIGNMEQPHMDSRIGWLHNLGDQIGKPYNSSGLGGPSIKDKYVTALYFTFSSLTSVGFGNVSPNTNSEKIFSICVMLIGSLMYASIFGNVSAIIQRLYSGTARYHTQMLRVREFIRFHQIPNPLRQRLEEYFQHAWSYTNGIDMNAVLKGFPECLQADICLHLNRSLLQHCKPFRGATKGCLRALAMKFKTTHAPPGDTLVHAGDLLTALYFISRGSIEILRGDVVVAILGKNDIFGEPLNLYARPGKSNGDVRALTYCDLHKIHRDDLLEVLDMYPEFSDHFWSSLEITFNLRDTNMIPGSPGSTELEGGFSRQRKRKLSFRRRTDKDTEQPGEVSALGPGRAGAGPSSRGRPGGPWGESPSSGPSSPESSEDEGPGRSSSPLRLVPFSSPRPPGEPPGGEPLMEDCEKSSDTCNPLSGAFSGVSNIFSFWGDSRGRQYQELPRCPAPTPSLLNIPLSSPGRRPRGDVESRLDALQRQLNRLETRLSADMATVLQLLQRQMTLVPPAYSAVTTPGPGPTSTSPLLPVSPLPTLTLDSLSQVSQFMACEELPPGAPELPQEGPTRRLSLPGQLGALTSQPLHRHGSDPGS
Procedure: Here, [3H] Astemizole competitive binding assays were performed to determine the ability of compounds to displace the known radioligand [3H]-astemizole from the hERG potassium channels, following standard protocol with minor modifications. In brief, assays were performed in 200 μl of binding buffer (50 mM HEPES, pH 7.4, 60 mM KCl, and 0.1% BSA) containing 1.5 nM of [3H]astemizole, 3 μg/well of hERG membrane protein (PerkinElmer), and TAI-1 (in 1% DMSO final concentration) at 27° C. for 60 min. Nonspecific binding (NSB) was determined in the presence of 10 μM astemizole. […] Binding was terminated by rapid filtration onto polyethyleneimine-presoaked, buffer-washed UniFilter-96, GF/C (Perkin Elmer) using a vacuum manifold (Porvair Sciences). Captured radiolabel signal was detected using TopCount NXT (Perkin Elmer). […] All results are derived from two independent experiments.

cyclin B1 and cyclin D1 = test: Immunoblot of cyclin B1 and cyclin D1; format: cell-based; details: 1 μM
Procedure: Immunoblot Analysis: For immunoblotting experiments, cells were plated in a 6-well culture plate and cultured overnight. Cells were incubated with the test compounds for the indicated time and whole cell lysate was harvested by adding 1×SDS-PAGE Sample Buffer (62.5 mM Tris-HCl (pH 6.8 at 25° C.), 2% w/v SDS, 10% glycerol, 50 mM DTT, and 0.01% w/v bromophenol blue or phenol red). Proteins were separated by SDS-PAGE electrophoresis and transferred to PVDF membrane. Protein expression was immunoblotted using various primary antibodies and detected using Immobilon Western Chemiluminescent HRP Substrate (Millipore, Billerica Mass. 01821 USA). Antibodies used include anti-Cleaved Caspase3, (Rabbit, Cell Signaling Technology, Danvers Mass. 01923 USA); anti-PARP (Rabbit, Cell Signaling Technology, Danvers Mass. 01923 USA); anti-MCL-1 (mouse, BD Biosciences, San Jose Calif. 95131 USA); anti-XIAP (rabbit, Cell Signaling Technology, Danvers Mass. 01923 USA); anti-Bcl-2 (mouse, Santa Cruz Biotechnology, Santa Cruz Calif. 95060); anti-Cyclin BI (mouse, BD Biosciences, San Jose Calif. 95131 USA); anti-Cyclin D1 (mouse, Santa Cruz Biotechnology, Santa Cruz Calif. 95060); Anti-Nek2 (mouse, BD Biosciences, San Jose Calif. 95131 USA); Anti-HEC1, (rabbit, GeneTex, Inc., Irvine Calif. 92606 USA); and anti-actin (mouse, Millipore, Billerica Mass. 01821 USA). […]

BT474 xenograft = test: Mouse xenograft study, BT474 breast cancer; format: in vivo, nude mice
Procedure: (§1) Mouse Xenograft Studies: Xenograft studies adapted from a previous published protocol (Wu et al, Cancer Res. 2008 Oct. 15; 68(20):8393-9). Female BALB/c nude (nu/nu) mice (5-8 weeks) were obtained from Lasco (Industrial Park, Tai-Ping Area, Taichung City, Taiwan). The animals were maintained under specific pathogen-free conditions, and food and water were supplied ad libitum. Housing and all procedures involving animals were performed according to protocols approved by the IACUC in DCB. Nude mice were inoculated with 17-β-estradiol pellets 72 to 96 h before implantation of BT-474 cells. For subcutaneous implantation of BT-474 cells, cells (1×10^7 in matrix gel/animal) were injected subcutaneously into the right subaxillary region. Treatment started when average tumor volume reached about 200 mm^3; mice were treated (p.o., QD/28 cycles in total) with vehicle A (0.5% methylcellulose), or candidate compounds formulated in vehicle A (10-50 mg/kg body weight). Perpendicular diameter measurement of each tumor were made with digital calipers and the volume of the tumor calculated using formula (L×W×W)/2, in which L and W represent the length and the width, respectively. Body weights were measured three times weekly.
(§2) The in vivo effectiveness of contemplated compounds in the reduction of tumor volume in nude mice is readily apparent.
(§3) Development of resistance to treatment in advanced stage tumors is a well known phenomenon. Activity of select Hec1 inhibitor in such late stage tumors was determined by re-dosing of BT474 xenografted animals that had previously subjected to 35 days of treatment with 110095 (compound 27 of Table 1). Re-treatment with 110095 was starting on day 42 and continued for 21 days.

MDA-MB-231 xenograft = test: Mouse xenograft study, MDA-MB-231 breast cancer; format: in vivo; details: MDA-MB-231 breast cancer xenograft, nude mice
MDA-MB-231 = test: Antiproliferation assay (MTS), MDA-MB-231 cells; format: cell-based; details: Homo sapiens, MDA-MB-231, 96 h, read-out: Antiproliferative IC50 MDA-MB-231, Table 1
How it was run: (§4)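 Cells seeded after overnight attachment were treated in triplicate for 96 h at 37 °C, 5% CO2, final DMSO below 1%. Viability read by MTS absorbance; concentration-response curves fitted by linear regression against DMSO controls.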

K562 = test: Antiproliferation assay (MTS), K562 cells; format: cell-based; details: Homo sapiens, K562, 96 h, Table 1, read-out: Antiproliferative IC50 K562
How it was run: as §4

[1] = Body weight in mouse xenograft studies; format: in vivo, nude mice
Procedure: as §1, §2, §3

**Q.** Which “sub-G1 population (apoptotic cells)” value (cancer cells) does the source give for COCCOc1cnc(Sc2cc(C)c(-c3csc(NC(=O)c4ccncc4)n3)c(C)c2)cn1 [Compound 27, N-(4-{4-(5-(2-methoxyethoxy)pyrazin-2-ylthio)-2,6-dimethylphenyl}thiazol-2-yl)isonicotinamide] here?
**A.** increase in the sub-G1 population

**Q.** And the pIC50 (hERG potassium channels)?
**A.** < 5.00

**Q.** What about the “cyclin B1 and cyclin D1 levels” value (cyclin B1 and cyclin D1) of the same compound?
**A.** cyclin BI and cyclin D degradation

**Q.** And the xenograft tumor outgrowth (BT474 xenograft; BT474 breast cancer xenograft, nude mice)?
**A.** inhibition of xenograft tumor outgrowth

**Q.** And the “activity in late stage tumors on re-treatment” value (BT474 xenograft; BT474 xenografted animals after 35 days of treatment, re-treatment from day 42 for 21 days)?
**A.** remained effective with late stage tumors

**Q.** And the xenograft tumor outgrowth (MDA-MB-231 xenograft)?
**A.** inhibition of xenograft tumor outgrowth

**Q.** What about the pIC50 (MDA-MB-231) of the same compound?
**A.** 7.45

**Q.** What about the pIC50 (K562) of the same compound?
**A.** 7.74

**Q.** What about the body weight ([1]; re-treatment of late stage xenografts) of the same compound?
**A.** body weight remained constant

**Q.** And the body weight ([1]; xenograft studies FIG. 7A-7D, nude mice)?
**A.** body weight remained constant
